Results reported in patent publication EP0516157A1, “Preparation of 6-0-alkylelsamicin A derivatives” (priority 1991, dated 1992).
Like-named read-outs stand apart in the source and are kept apart here.

How the values were obtained:
[1] = tested on: lymphocytic leukemia P388; test: In vivo antitumor activity against P388 leukemia in mice; details: for T/C % of MST: P388, female CDF1 mice, Q1Dx3 ip; for anti-P388 activity compared with elsamicin A / toxicity compared with elsamicin A: P388 system, in words
Experimental: (§1) In vivo antitumor activity of the above fifteen derivatives was tested in the lymphocytic leukemia P388 and melanoma B16 systems. Female CDF₁ (for P388) and male BDF₁ (for B16) mice were inoculated by ip injection at 10⁶ P388 cells and 0.5 ml of a 10% B16 brei per mouse, respectively (day 0). […] The percent increase of median survival time (MST) of treated animals over that of untreated control animals was determined and reported as T/C %. Compounds showing T/C % values of 125 or greater are considered to have significant antitumor activity.

[2] = tested on: murine melanoma B16-F10 cells; test: In vitro cytotoxicity, neutral red staining after 72 hours; details: for Cytotoxicity IC50: 72 hours incubation
Experimental: (§2) For in vitro cytotoxicity experiment, murine melanoma B16-F10 cells were grown and maintained in Eagle's minimum essential medium (Nissui), which contains kanamycin (60 µg/ml), supplemented with heat-inactivated fetal calf serum (10%) and nonessential amino acids (0.6%) at 37°C under a humidified atmosphere in a 5% CO₂ incubator. Exponentially growing B16-F10 cells were harvested, counted and suspended in the culture medium at the concentration of 2.0x10⁴ cells/ml. The cell suspension (180 µl) was planted into wells of a 96-well microtiter plate and incubated for 24 hours. Test compounds (20 µl) were added to the wells and the plates were further incubated for 72 hours. The cytotoxic activity was colorimetrically determined at 540 nm after staining viable cells with neutral red solution.

melanoma B16 = test: In vivo antitumor activity against B16 melanoma in mice; details: for T/C % of MST: B16, male BDF1 mice; for T/C % of MST / No. of survivors/tested on day 50: Q4Dx3 ip
Experimental: as §1

[3] = tested on: murine melanoma B16-F10 cells
Experimental: as §2

| SMILES | T/C % of MST ([1]; 0.1 mg/kg/day) | T/C % of MST ([1]; 0.3 mg/kg/day) | T/C % of MST ([1]; 1 mg/kg/day) | T/C % of MST ([1]; 3 mg/kg/day) | T/C % of MST ([1]; 10 mg/kg/day) | Cytotoxicity IC50 [2] | T/C % of MST ([1]; 20 mg/kg/day) | T/C % of MST ([1]; 40 mg/kg/day) | anti-P388 activity compared with elsamicin A [1] | toxicity compared with elsamicin A [1] | T/C % of MST (melanoma B16; 0.3 mg/kg/day) | T/C % of MST (melanoma B16; 1 mg/kg/day) | T/C % of MST (melanoma B16; 3 mg/kg/day) | T/C % of MST (melanoma B16; 10 mg/kg/day) | cytotoxicity compared with the parent compound [3] | No. of survivors/tested on day 50 (melanoma B16; B16, 3 mg/kg/day) | No. of survivors/tested on day 50 (melanoma B16; B16, 10 mg/kg/day) | T/C % of MST (melanoma B16; 0.1 mg/kg/day) | chemotherapeutic activity in the B16 system (melanoma B16; B16 system, in words) | cytotoxicity compared with the parent compound ([2]; in words, versus elsamicin A) |
| --- | --- | --- | --- | --- | --- | --- | --- | --- | --- | --- | --- | --- | --- | --- | --- | --- | --- | --- | --- | --- |
| COC1C(N)C(OC2C(Oc3cccc4c(OCCCN5C(=O)c6ccccc6C5=O)c5c(=O)oc6ccc(C)c7c(=O)oc(c34)c5c67)OC(C)C(O)C2(C)O)OC(C)C1O (centres unmarked) [Compound 7h, 6-O-(3-phthalimidopropyl)elsamicin A] | 105% | 105% | 120% | 125% | 140% | 0.71 µg/mL |  |  |  |  |  |  |  |  |  |  |  |  |  |  |
| COC1C(N)C(OC2C(Oc3cccc4c(OCCCN5C(=O)c6ccccc6C5=O)c5c(=O)oc6ccc(C)c7c(=O)oc(c34)c5c67)OC(C)C3OC(C)(C)OC32C)OC(C)C1O (centres unmarked) [Compound 8h, 3'4'-O-Isopropylidene-6-O-(3-phthalimidopropyl)elsamicin A] | 100% | 110% | 110% | 120% | 130% | 0.4 µg/mL |  |  |  |  |  |  |  |  |  |  |  |  |  |  |
| CCCCCCOc1c2cccc(OC3OC(C)C4OC(C)(C)OC4(C)C3OC3OC(C)C(O)C(OC)C3N)c2c2oc(=O)c3c(C)ccc4oc(=O)c1c2c43 (centres unmarked) [Compound 8f, 6-O-n-Hexyl-3'4'-O-isopropylideneelsamicin A] | 110% | 110% | 110% | 115% | 120% | 0.9 µg/mL |  |  |  |  |  |  |  |  |  |  |  |  |  |  |
| COc1c2cccc(OC3OC(C)C(O)C(C)(O)C3OC3OC(C)C(O)C(OC)C3N)c2c2oc(=O)c3c(C)ccc4oc(=O)c1c2c43 (centres unmarked) [Compound 7a, 6-O-Methylelsamicin A] |  |  |  |  |  | 0.19 µg/mL |  |  |  |  |  |  |  |  |  |  |  |  |  |  |
| CCCCOc1c2cccc(OC3OC(C)C(O)C(C)(O)C3OC3OC(C)C(O)C(OC)C3N)c2c2oc(=O)c3c(C)ccc4oc(=O)c1c2c43 (centres unmarked) [Compound 7e, 6-O-n-Butylelsamicin A] | 110% | 124% | 133% | 152% | 162% | 0.03 µg/mL | 141% | 164% | as active as elsamicin A | seemed to be less toxic | 123% | 127% | 160% | 213% | approximately equipotent cytotoxicity to the parent compound |  |  |  |  |  |
| CCCCCCCCCCOc1c2cccc(OC3OC(C)C(O)C(C)(O)C3OC3OC(C)C(O)C(OC)C3N)c2c2oc(=O)c3c(C)ccc4oc(=O)c1c2c43 (centres unmarked) [Compound 7g, 6-O-n-Decylelsamicin A] |  | 115% | 105% | 115% | 100% | 2.5 µg/mL |  |  |  |  | 107% | 126% | 153% | 183% |  |  |  |  |  |  |
| COC1C(N)C(OC2C(Oc3cccc4c(O)c5c(=O)oc6ccc(C)c7c(=O)oc(c34)c5c67)OC(C)C(O)C2(C)O)OC(C)C1O (centres unmarked) [Elsamicin A (1), Elsamicin A] | 124% | 138% | 155% | 180% | 206% | 0.05 µg/mL | Tox |  |  |  | 139% | 178% | ≥ 216% | ≥ 305% |  | 2/24 | 9/24 | 120% |  |  |
| COC1C(N)C(OC2C(Oc3cccc4c(OC(C)C)c5c(=O)oc6ccc(C)c7c(=O)oc(c34)c5c67)OC(C)C(O)C2(C)O)OC(C)C1O (centres unmarked) [Compound 7d, 6-O-Isopropylelsamicin A] | 95% | 119% | 124% | 133% | 148% | 0.49 µg/mL |  |  |  |  |  |  |  |  |  |  |  |  |  |  |
| COC1C(N)C(OC2C(Oc3cccc4c(OCCCN)c5c(=O)oc6ccc(C)c7c(=O)oc(c34)c5c67)OC(C)C3OC(C)(C)OC32C)OC(C)C1O (centres unmarked) [Compound 8i, 6-O-(3-Aminopropyl)-3',4'-isopropylideneelsamicin A] |  | 105% | 110% | 120% | 135% | 1.8 µg/mL |  |  |  |  |  |  |  |  |  |  |  |  |  |  |
| COc1c2cccc(OC3OC(C)C4OC(C)(C)OC4(C)C3OC3OC(C)C(O)C(OC)C3N)c2c2oc(=O)c3c(C)ccc4oc(=O)c1c2c43 (centres unmarked) [Compound 8a, 3',4'-O-Isopropylidene-6-O-methylelsamicin A] |  |  |  |  |  | 0.08 µg/mL |  |  |  |  |  |  |  |  |  |  |  |  |  |  |
| CCOc1c2cccc(OC3OC(C)C4OC(C)(C)OC4(C)C3OC3OC(C)C(O)C(OC)C3N)c2c2oc(=O)c3c(C)ccc4oc(=O)c1c2c43 (centres unmarked) [Compound 8b, 6-O-Ethyl-3'4'-O-isopropylideneelsamicin A] | 110% | 125% | 125% | 140% | 190% | 0.06 µg/mL | 200% |  | as active as elsamicin A | seemed to be less toxic | 106% | 119% | 153% | 216% | approximately equipotent cytotoxicity to the parent compound |  |  | 97% |  |  |
| CCCCCCCCCCOc1c2cccc(OC3OC(C)C4OC(C)(C)OC4(C)C3OC3OC(C)C(O)C(OC)C3N)c2c2oc(=O)c3c(C)ccc4oc(=O)c1c2c43 (centres unmarked) [Compound 8g, 6-O-n-Decyl-3'4'-O-isopropylideneelsamicin A] |  | 115% | 105% | 115% | 100% | 2.9 µg/mL |  |  |  |  |  |  |  |  |  |  |  |  |  |  |
| CCCOc1c2cccc(OC3OC(C)C(O)C(C)(O)C3OC3OC(C)C(O)C(OC)C3N)c2c2oc(=O)c3c(C)ccc4oc(=O)c1c2c43 (centres unmarked) [Compound 7c, 6-O-n-Propylelsamicin A] | 105% | 129% | 133% | 152% | 152% | 0.03 µg/mL | 155% | 159% | as active as elsamicin A | seemed to be less toxic |  |  |  |  | approximately equipotent cytotoxicity to the parent compound |  |  |  |  |  |
| COC1C(N)C(OC2C(Oc3cccc4c(OCCCN)c5c(=O)oc6ccc(C)c7c(=O)oc(c34)c5c67)OC(C)C(O)C2(C)O)OC(C)C1O (centres unmarked) [Compound 7i, 6-O-(3-Aminopropyl)elsamicin A] |  | 105% | 110% | 110% | 130% | 2.3 µg/mL |  |  |  |  |  |  |  |  |  |  |  |  |  |  |
| CCCCCCOc1c2cccc(OC3OC(C)C(O)C(C)(O)C3OC3OC(C)C(O)C(OC)C3N)c2c2oc(=O)c3c(C)ccc4oc(=O)c1c2c43 (centres unmarked) [Compound 7f, 6-O-n-Hexylelsamicin A] | 100% | 105% | 120% | 130% | 140% | 0.11 µg/mL |  |  |  |  | 111% | 129% | 132% | 146% |  |  |  | 107% |  |  |
| CCOc1c2cccc(OC3OC(C)C(O)C(C)(O)C3OC3OC(C)C(O)C(OC)C3N)c2c2oc(=O)c3c(C)ccc4oc(=O)c1c2c43 (centres unmarked) [Compound 7b, 6-O-Ethylelsamicin A] | 110% | 125% | 130% | 150% | 170% | 0.06 µg/mL | 170% | 180% | as active as elsamicin A | seemed to be less toxic | 113% | 144% | 178% | ≧313% |  |  | (3/4) | 103% | excellent chemotherapeutic activity | approximately equipotent cytotoxicity to the parent compound |
